# Assay results reported in patent US20230320967A1, “COMPOSITION, USE OF THE COMPOSITION, COSMETIC METHOD FOR MODULATING THE PRODUCTION OF SEBUM” (CHEMYUNION LTDA., priority 2020, published 2023).
# Peptide text beside a SMILES is read from it.
# Key:
# [1] = system: SEBO662AR cell model; assay: Cytotoxicity in vitro (non-cytotoxic concentration); type: cell-based, human; settings: SEBO662AR study
# [2] = system: SEBO662AR cell model; assay: Sebum production inhibition in SEBO662AR sebocyte model, androgen-free lipogenic medium, Bodipy lipid droplet imaging; type: cell-based, human; settings: 500 micromolar, comparable to cerulenin 10 micromolar
# Method: Sebocytes are cells found in the sebaceous glands and that, in the differentiation process, accumulate lipid droplets in their interior. The SEBO662AR cell model is an immortalized lineage of human sebocytes that responds to lipogenic stimuli and that can be used to select potential sebum production inhibitors.
# A sebum production inhibition study was conducted in the SEBO662AR cell model cultivated in androgen-free lipogenic medium, and the formation of droplets was monitored by using Bodipy® fluorescent probes and image analysis. As an inhibition reference, cerulenin was applied at a concentration of 10 micromolar—a fatty acid synthase inhibitor which, although effective in reducing sebum production, is a very labile molecule as it has unsaturations and an epoxy group in its structure, so that its use is restricted to laboratory testing.
# [3] = system: skin oiliness (sebum) of female volunteers with mixed or oily skin; assay: Clinical testing: face oiliness by sebum-metric index, Sebumeter SM 815; type: in vivo, human; settings: 0.01% w/w in cosmetic base (BC-tripeptide), twice a day, 20 female volunteers
# Method: For the clinical efficacy evaluation, the tripeptide (Glu-Val-Phe) was applied in a cosmetic base (BC) at a concentration of 0.01% (w/w) and compared to a placebo base, without active (Table 2).
# The study was conducted with 20 female volunteers, between 18 and 50 years old, with mixed or oily skin, oily skin with a sebum-metric index above 100, who used the product (BC-placebo or BC-tripeptide) twice a day (morning and evening) for 28 days.
# The participants were referred to the Instrumental Sector for acclimatizing for at least 20 minutes, in a room with controlled temperature and humidity (T=20±2° C. and RH=50±5%). After the acclimatizing period, sebum-metrics measurements were performed on the forehead. […]
# The Sebumeter photometrically measures the increase in transparency of a special plastic strip that becomes translucent when coated with sebum. […] The strip is supported by a mirror which presses it against the skin of the region to be evaluated with a fixed pressure of 10N by means of a spring. […] The strip transparency is evaluated by a photocell present in the device where the plastic strip is inserted, and the light transmission represents the amount of sebum per area and the results are expressed in absolute values (μg sebum/cm^2). […]
compound,measurement,setting,value
"CC(C)[C@H](NC(=O)[C@@H](N)CCC(=O)O)C(=O)N[C@@H](Cc1ccccc1)C(=O)O [SEQ ID No. 1, H-Glu-Val-Phe-OH] (H-Glu-Val-Phe-OH)",higher non-cytotoxic concentration,[1],500 µM
same,reduction in sebum production,[2],28%
same,decrease of the average of the sebum-metric indices vs initial time (D0),[3]; after 14 days,31.54%
same,reduction of average oiliness vs initial time (D0),[3]; after 28 days,29.75%
